According to patent US7405280B2, “Chromogenic substances and use thereof for the determination of carboxypeptidase activities” (Diagnostica Stago, priority 2001, dated 2008):

How the values were obtained:
[1] = target: T1, porcine pancreatic carboxypeptidase B (Sus scrofa, UniProt P09955); test: Decolorization of single amino acid substrate AAFR by porcine pancreatic carboxypeptidase B; assay type: biochemical; conditions: porcine CPB 5.2 mol/l in Hepes buffer; 5 mM AAFR; at 382 nm
T1 construct: purchased Sigma C9584; host or cells: porcine pancreas
T1 sequence (P09955 111-416): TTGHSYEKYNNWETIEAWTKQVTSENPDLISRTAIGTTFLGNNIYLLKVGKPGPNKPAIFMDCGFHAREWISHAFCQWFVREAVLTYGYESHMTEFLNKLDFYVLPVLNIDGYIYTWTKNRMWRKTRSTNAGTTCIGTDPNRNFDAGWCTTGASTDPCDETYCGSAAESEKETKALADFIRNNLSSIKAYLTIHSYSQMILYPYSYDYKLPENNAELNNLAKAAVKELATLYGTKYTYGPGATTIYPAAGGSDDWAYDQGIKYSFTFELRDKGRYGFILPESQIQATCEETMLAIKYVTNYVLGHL
Procedure: (§1) This substrate was constituted by a single amino acid carrying an anizylazoformyl chromophoric radical (CH3OC6H4—N═N—CO— portion). The amino acid selected was arginine, a basic amino acid normally hydrolyzed by carboxypeptidases B (1).
(§2) This substrate (0.25 mM) was brought into the presence of either a sample of plasma TAFI or a solution of porcine pancreatic carboxypeptidase B (Sigma, Reference: C9584), […].
(§3) The reduction in coloration of each of the two samples was followed using a spectrophotometer. Each sample was treated using the protocol below: • a) Starting sample: • plasma TAFI (present in a normal plasma pool—diluted to 1/20); or • porcine pancreatic carboxypeptidase B, […] (in Hepes buffer); • b) activation with thrombin-thrombomodulin-CaCl2 complex (see Example N^o 2) for the plasma TAFI sample; • c) addition of 5 mM AAFR; • d) read OD at 382 nm.

plasma TAFI (TAFIa) = target: T2, plasma TAFI (TAFIa) (Homo sapiens, UniProt Q96IY4); test: Decolorization of single amino acid substrate AAFR by activated plasma TAFI; assay type: biochemical; conditions: compared with pancreatic CPB
T2 construct: from tissue; host or cells: normal plasma pool, diluted 1/20
T2 sequence (Q96IY4 115-423): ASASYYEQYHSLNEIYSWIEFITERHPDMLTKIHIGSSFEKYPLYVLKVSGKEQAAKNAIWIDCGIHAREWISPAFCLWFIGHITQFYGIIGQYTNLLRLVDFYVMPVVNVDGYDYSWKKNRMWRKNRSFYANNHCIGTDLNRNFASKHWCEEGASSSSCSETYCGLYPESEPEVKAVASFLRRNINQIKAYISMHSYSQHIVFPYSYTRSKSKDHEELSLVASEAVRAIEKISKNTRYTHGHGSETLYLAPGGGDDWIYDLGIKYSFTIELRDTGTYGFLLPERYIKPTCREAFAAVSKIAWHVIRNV
Procedure: as §1, §2, §3

purified TAFI (TAFIa) = target: T3, purified TAFI (TAFIa) (Homo sapiens, UniProt Q96IY4); test: Hydrolysis of MxAFR or MxPAFFK by activated purified TAFI solution; assay type: biochemical; conditions: purified TAFI 18 μg/ml
T3 sequence (Q96IY4 115-423): T2 sequence (Q96IY4 115-423)
Procedure: 2/ The method of the invention was then applied to a solution of purified TAFI either with a substrate with formula (I) (MxPAFFK) or with MxAFR to verify that TAFIa nevertheless hydrolyzes a compound with formula (I). Coagulation activation was triggered by the thrombin-thrombomodulin-CaCl2 complex (see protocol in Example N^o 2).
The reduction in coloration of each of the two samples was followed using a spectrophotometer. • a) Starting samples: purified TAFI solution, 18 μg/ml (diluted in Hepes buffer); • b) activating coagulation; • c) adding 27 mM MxAFR or MXPAFFK (control), concentration of MxAFFK; • d) adding CPA to the sample containing the MxPAFFK; • e) read OD at 382 nm.

TAFI = conditions: per 1 mg of PCI; as indicated by the manufacturer (Calbiochem); cited from earlier work

| Compound | Final OD [1] | Starting OD [1] | Hydrolysis by activated TAFI (conclusion) (plasma TAFI (TAFIa)) | Hydrolysis by activated TAFI (conclusion) (purified TAFI (TAFIa)) | Amount of TAFI (50 U/mg) inhibited at 50% by 1 mg of PCI (TAFI) |
| --- | --- | --- | --- | --- | --- |
| COc1ccc(N=NC(=O)N[C@@H](CCCNC(=N)N)C(=O)O)cc1 [AAFR, 4-methoxyphenylazoformylarginine] | 0.445 | 1.054 | does not hydrolyze | does not hydrolyze |  |
| COc1ccc(/N=N/C(=O)NC(Cc2ccccc2)C(=O)NC(CCCCN)C(=O)O)cc1 (stereo not drawn) [MxPAFFK, 4-metboxyphenylazoformylphenylalanyllysine] |  |  |  | active |  |
| PCI: Carboxypeptidase Inhibitor from Potato Tubers, specific TAFI inhibitor (Calbiochem ref 217359) (QQHADPICNKPCKTHDDCSGAWFCQACWNSARTCGPYVG; UniProt P01075 1-39, looked up) |  |  |  |  | about 8 mg |
